Results published in patent US20080194616A1, “PYRIDOPYRIMIDINONE COMPOUNDS USEFUL IN TREATING SODIUM CHANNEL-MEDIATED DISEASES OR CONDITIONS” (Xenon Pharmaceuticals Inc., priority 2007, published 2008).
Where a name gives a salt, the structure may show the parent alone.

SMILES	melting point
O=c1c(-c2ccc(N[C@@H]3CCNC3)cc2)c(N2CCCC2)nc2ccccn12 (as salt: chloride) [Example 7.11, (R)-2-pyrrolidin-1-yl-3-{4-[pyrrolidin-3-ylamino]phenyl}-4H-pyrido[1,2-a]pyrimidin-4-one hydrogen chloride]	177 to 183 °C
CCCCc1nc2ccccn2c(=O)c1-c1ccc2c(c1)CCN2 (as salt: hydrochloride) [Example 2, 2-butyl-3-(indolin-5-yl)-4H-pyrido[1,2-a]pyrimidin-4-one hydrochloride]	157 to 162 °C
CCCCc1nc2ccccn2c(=O)c1-c1ccc(NC[C@H]2CCCO2)cc1 (as salt: hydrochloride) [Example 3.27, (R)-2-butyl-3-(4-{[tetrahydrofuran-2-ylmethyl]amino}phenyl)-4H-pyrido[1,2-a]pyrimidin-4-one hydrochloride]	155 to 170 °C
CCCCc1nc2ccccn2c(=O)c1-c1ccc(NC[C@@H]2CCCO2)cc1 (as salt: hydrochloride) [Example 3.28, (S)-2-butyl-3-(4-{[tetrahydrofuran-2-ylmethyl]amino}phenyl)-4H-pyrido[1,2-a]pyrimidin-4-one hydrochloride]	155 to 170 °C
CCCCc1nc2ccccn2c(=O)c1-c1ccc(N[C@@H]2CCOC2)cc1 (as salt: hydrochloride) [Example 3.29, (R)-2-butyl-3-{4-[tetrahydrofuran-3-ylamino]phenyl}-4H-pyrido[1,2-a]pyrimidin-4-one hydrochloride]	135 to 145 °C
CCCCc1nc2ccccn2c(=O)c1-c1ccc(NC2CCCNC2)cc1 (centres unmarked) (as salt: hydrochloride) [Example 6, 2-butyl-3-[4-(piperidin-3-ylamino)phenyl]-4H-pyrido[1,2-a]pyrimidin-4-one hydrochloride]	178 to 185 °C
CCCCc1nc2ccccn2c(=O)c1-c1ccc(NC2CCNCC2)cc1 (as salt: hydrochloride) [Example 6.1, 2-butyl-3-[4-(piperidin-4-ylamino)phenyl]-4H-pyrido[1,2-a]pyrimidin-4-one hydrochloride]	> 220 °C
CCCCc1nc2ccccn2c(=O)c1-c1ccc(N[C@@H]2CCCNC2)cc1 (as salt: hydrochloride) [Example 6.2, (R)-2-butyl-3-{4-[piperidin-3-ylamino]phenyl}-4H-pyrido[1,2-a]pyrimidin-4-one hydrochloride]	190 to 210 °C
Cc1nc2ccccn2c(=O)c1-c1ccc(N[C@@H]2CCNC2)cc1 (as salt: hydrochloride) [Example 6.3, (R)-2-methyl-3-(4-(pyrrolidin-3-ylamino)phenyl)-4H-pyrido[1,2-a]pyrimidin-4-one hydrochloride]	149 to 158 °C
CCc1nc2ccccn2c(=O)c1-c1ccc(N[C@@H]2CCNC2)cc1 (as salt: hydrochloride) [Example 6.4, (R)-2-ethyl-3-(4-(pyrrolidin-3-ylamino)phenyl)-4H-pyrido[1,2-a]pyrimidin-4-one hydrochloride]	175 to 182 °C
CCCCc1nc2ccccn2c(=O)c1-c1ccc(NC2CCNC2)cc1 (centres unmarked) (as salt: hydrochloride) [Example 7, 2-butyl-3-(4-(pyrrolidin-3-ylamino)phenyl)-4H-pyrido[1,2-a]pyrimidin-4-one hydrochloride]	136 to 139 °C
CCCCc1nc2ccccn2c(=O)c1-c1ccc(N[C@H]2CCNC2)cc1 (as salt: hydrochloride) [Example 7.1, (S)-2-butyl-3-{4-[pyrrolidin-3-ylamino]phenyl}-4H-pyrido[1,2-a]pyrimidin-4-one hydrochloride]	164 to 171 °C
CCCCc1nc2ccccn2c(=O)c1-c1ccc(N[C@@H]2CCNC2)c(F)c1 (as salt: hydrochloride) [Example 7.2, (R)-2-butyl-3-{3-fluoro-4-[(pyrrolidin-3-ylamino]phenyl}-4H-pyrido[1,2-a]pyrimidin-4-one hydrochloride]	143 to 155 °C
CCCCc1nc2ccccn2c(=O)c1-c1ccc(N[C@@H]2CCNC2)cc1C (as salt: hydrochloride) [Example 7.3, (R)-2-butyl-3-{2-methyl-4-[pyrrolidin-3-ylamino]phenyl}-4H-pyrido[1,2-a]pyrimidin-4-one hydrochloride]	179 to 187 °C
CCCCc1nc2ccccn2c(=O)c1-c1cccc(NC2CCNC2)c1 (centres unmarked) (as salt: hydrochloride) [Example 7.4, 2-butyl-3-[3-(pyrrolidin-3-ylamino)phenyl]-4H-pyrido[1,2-a]pyrimidin-4-one hydrochloride]	> 170 °C
CC(C)c1nc2ccccn2c(=O)c1-c1ccc(NC2CCNC2)cc1 (centres unmarked) (as salt: hydrochloride) [Example 7.5, 2-(1-methylethyl)-3-[4-(pyrrolidin-3-ylamino)phenyl]-4H-pyrido[1,2-a]pyrimidin-4-one hydrochloride]	180 to 184 °C
CC(C)CCc1nc2ccccn2c(=O)c1-c1ccc(N[C@@H]2CCNC2)cc1 (as salt: hydrochloride) [Example 7.6, (R)-2-isopentyl-3-(4-(pyrrolidin-3-ylamino)phenyl)-4H-pyrido[1,2-a]pyrimidin-4-one hydrochloride]	171 to 187 °C
O=c1c(-c2ccc(N[C@@H]3CCNC3)cc2)c(CCC2CC2)nc2ccccn12 (as salt: hydrochloride) [Example 7.7, (R)-2-(2-cyclopropylethyl)-3-(4-(pyrrolidin-3-ylamino)phenyl)-4H-pyrido[1,2-a]pyrimidin-4-one hydrochloride]	182 to 185 °C

SMILES	melting point
CCCNc1nc2ccccn2c(=O)c1-c1ccc(NC2CCNC2)cc1 (centres unmarked) (as salt: hydrochloride) [Example 7.8, 2-(propylamino)-3-[4-(pyrrolidin-3-ylamino)phenyl]-4H-pyrido[1,2-a]pyrimidin-4-one hydrochloride]	156 to 161 °C
CC(C)Nc1nc2ccccn2c(=O)c1-c1ccc(NC2CCNC2)cc1 (centres unmarked) (as salt: hydrochloride) [Example 7.9, 2-[(1-methylethyl)amino]-3-[4-(pyrrolidin-3-ylamino)phenyl]-4H-pyrido[1,2-a]pyrimidin-4-one hydrochloride]	232 to 236 °C
CC(C)Nc1nc2ccccn2c(=O)c1-c1ccc(N[C@@H]2CCNC2)cc1 (as salt: hydrochloride) [Example 7.10, (R)-2-[(1-methylethyl)amino]-3-{4-[pyrrolidin-3-ylamino]phenyl}-4H-pyrido[1,2-a]pyrimidin-4-one hydrochloride]	229 to 234 °C
CCCCc1nc2ccccn2c(=O)c1-c1ccc2c(c1)CCN2C1CCNC1 (centres unmarked) (as salt: hydrochloride) [Example 7.12, 2-butyl-3-(1-(pyrrolidin-3-yl)indolin-5-yl)-4H-pyrido[1,2-a]pyrimidin-4-one hydrochloride]	159 to 163 °C
CCCCc1nc2ccccn2c(=O)c1-c1ccc(N2CCNCC2)nc1 (as salt: hydrochloride) [Example 7.13, 2-butyl-3-(6-piperazin-1-ylpyridin-3-yl)-4H-pyrido[1,2-a]pyrimidin-4-one hydrochloride]	> 245 °C
CCCCc1nc2ccccn2c(=O)c1-c1ccc(O[C@@H]2CCNC2)cc1 (as salt: hydrochloride) [Example 15, (R)-2-butyl-3-{4-[pyrrolidin-3-yloxy]phenyl}-4H-pyrido[1,2-a]pyrimidin-4-one hydrochloride]	132 to 140 °C
CCCCc1nc2ccccn2c(=O)c1-c1ccc(N(C)C2CCCNC2)cc1 (centres unmarked) (as salt: hydrochloride) [Example 17, 2-butyl-3-{4-[methyl(piperidin-3-yl)amino]phenyl}-4H-pyrido[1,2-a]pyrimidin-4-one hydrochloride]	170 to 185 °C
CCCCc1nc2ccccn2c(=O)c1-c1ccc(OS(=O)(=O)C(F)(F)F)cc1 (as salt: methanesulfonate) [Example 12, 4-(2-butyl-4-oxo-4H-pyrido[1,2-a]pyrimidin-3-yl)phenyl trifluoromethanesulfonate]	106 to 108 °C
COc1nc2ccccn2c(=O)c1-c1ccc(NC2CCNC2)cc1 (centres unmarked) (as salt: trifluoroacetate) [Example 9, 2-methoxy-3-[4-(pyrrolidin-3-ylamino)phenyl]-4H-pyrido[1,2-a]pyrimidin-4-one trifluoroacetate]	56 to 58 °C
CCCOc1nc2ccccn2c(=O)c1-c1ccc(N[C@@H]2CCNC2)cc1 (as salt: trifluoroacetate) [Example 9.1, (R)-2-propoxy-3-(4-(pyrrolidin-3-ylamino)phenyl)-4H-pyrido[1,2-a]pyrimidin-4-one trifluoroacetate]	> 100 °C (dec.)
CCCc1nc2ccccn2c(=O)c1-c1ccc(Cl)cc1 [Example 1.4, 3-(4-chlorophenyl)-2-propyl-4H-pyrido[1,2-a]pyrimidin-4-one]	109 to 110 °C
CCCCc1nc2ccccn2c(=O)c1-c1ccccc1Cl [Example 1.6, 2-butyl-3-(2-chlorophenyl)-4H-pyrido[1,2-a]pyrimidin-4-one]	118 to 120 °C
CCCCc1nc2ccccn2c(=O)c1-c1ccc(Cl)cc1C [Example 1.9, 2-butyl-3-(4-chloro-2-methylphenyl)-4H-pyrido[1,2-a]pyrimidin-4-one]	105 to 107 °C
CCCCc1nc2ccccn2c(=O)c1-c1ccc(Cl)c(C)c1 [Example 1.10, 2-butyl-3-(4-chloro-3-methylphenyl)-4H-pyrido[1,2-a]pyrimidin-4-one]	122 to 124 °C
CCCCc1nc2ccccn2c(=O)c1-c1ccc(OC)c(Cl)c1 [Example 1.13, 2-butyl-3-(3-chloro-4-methoxyphenyl)-4H-pyrido[1,2-a]pyrimidin-4-one]	113 to 115 °C
CC(C)CCc1nc2ccccn2c(=O)c1-c1ccc(Cl)cc1 [Example 1.17, 3-(4-chlorophenyl)-2-isopentyl-4H-pyrido[1,2-a]pyrimidin-4-one]	146 to 149 °C
COCCc1nc2ccccn2c(=O)c1-c1ccc(Cl)cc1 [Example 1.26, 3-(4-chlorophenyl)-2-(2-methoxyethyl)-4H-pyrido[1,2-a]pyrimidin-4-one]	116 to 118 °C
